Reference: patent US4016259A, “Contraceptive polypeptides” (Research Corporation, priority 1975, dated 1977)
Peptide text beside a SMILES is read from it.

Key:
[1] = tested on: Hamster; assay: Female Anti-Fertility test (Table I), implants counted at autopsy; type: in vivo; conditions: subc., saline, days (-4)-(-1), autopsy day 10
Procedure: In one study carried out with hamsters Thr-Pro-Arg-Lys as the diacetate was administered subcutaneously in isotonic solution at dosage levels of 2, […], once daily starting on the day of postovulatory discharge (-4) prior to mating. Treatment was continued until the fourth day after ovulation. The animals were mated and then sacrificed on the tenth day. The uterus was opened, and the number of implants counted.
TEST Female Anti-Fertility
ROUTE OF ADMINISTRATION Subc.
Once daily for four days, starting on the day
of postovulatory discharge, prior to mating.

[2] = tested on: hamsters; assay: Control of pregnancy in hamsters, compound in phosphate buffer pH 7.1 subcutaneously or orally; type: in vivo, hamster

## C[C@@H](O)[C@H](N)C(=O)N1CCC[C@H]1C(=O)N[C@@H](CCCNC(=N)N)C(=O)N[C@@H](CCCCN)C(=O)O [Thr-Pro-Arg-Lys, threonyl-prolyl-arginyl-lysine] (H-TPRK-OH)
[1]; daily dose 2.0 μg/100 mg
  Average No. of Implants: 0.5
  Total No. of Normal Fetuses: 5
  Total No. of Resorbing Fetuses: 0
[1]; daily dose 2.0 μg/100 mg, 10/10 sperm +
  No. of Animals with Implantations: 1
[1]; daily dose 10.0 μg/100 mg
  Average No. of Implants: 4.6
  Total No. of Normal Fetuses: 46
  Total No. of Resorbing Fetuses: 3
[1]; daily dose 10.0 μg/100 mg, 10/10 sperm +
  No. of Animals with Implantations: 4
[1]; daily dose 100.0 μg/100 mg
  Average No. of Implants: 5.9
  Total No. of Normal Fetuses: 53
  Total No. of Resorbing Fetuses: 1
[1]; daily dose 100.0 μg/100 mg, 9/10 sperm +
  No. of Animals with Implantations: 4
[2]; administered orally at 35 to 50 μg/100 gm/day
  number of pregnancies: reduced to zero
[2]; subcutaneous, phosphate buffer pH 7.1, at 0.7 mcg/gm/day
  number of implantations per animal: less than one
[2]; subcutaneous, phosphate buffer pH 7.1, calculated as free base
  effective dose (number of implantations per animal reduced to less than one): 0.7 mcg/gm/day
